Laboratory results taken from patent US20210113492A1, “METHOD FOR INHIBITING PROLIFERATION AND METASTASIS OF CANCER CELLS BY USING NAPHTHOQUINONE DERIVATIVE” (National Tsing Hua University, priority 2019, published 2021).
In brackets after ≈: the same amount, converted by molar mass.

Assays:
[1] = tested on: human non-small cell lung carcinoma cells (H1299); assay: MTT survival assay, H1299; assay type: cell-based; settings: NCI-H1299, 48 h, read-out: IC50, survival rate
Method: According to the present invention, human non-small cell lung carcinoma cell H1299 were obtained from ATCC (ATCC® CRL-5803™) cultured in Roswell Park Memorial Institute (RPMI) 1640 medium (Invitrogen) containing 10% FBS, 1% L-Gln and 1% AA. Cells were maintained in a humidified atmosphere containing 5% CO2 at 37° C., and the culture medium was replaced every 2 days.
(§1) Isoplumbagin (AKOS006277326, acquired from AKos GmbH, Steinen, Germany) was dissolved in dimethyl sulfoxide (DMSO) and added to the medium, so that the final concentration of DMSO was less than 0.1%. The survival rate of isoplumbagin on OC3-IV2, U87, H1299 and PC3 cell lines was determined using the 3-(4,5-dimethylthiazol-2-yl)-2,5-diphenyltetrazolium bromide (MTT; Sigma-Aldrich) assays. 3×10^3 cells/well were seeded in 96-well plates. After incubation for 24 h, cells were treated with isoplumbagin at various concentrations (0, 1, 5, 10, 25, 50 and 100 μM) and incubated for a further 48 h. At the end of treatment, 10 μL 5 mg/mL MTT was added to each well. After incubation at 37° C. for 3 h, medium was removed and DMSO was added to each well to dissolve reduced MTT product formazan. The absorbance of dissolved formazan was measured at 550 nm wavelengths by a spectrophotometer. […]

[2] = tested on: oral squamous cell carcinoma cells (OC3-IV2); assay: Boyden chamber invasion assay, OC3-IV2; assay type: cell-based, human; settings: 5, 7.5 and 10 μM, 24 h, dose dependency (FIG. 2A)
Method: (§2) Cells were harvested by […] and resuspended in a serum-free medium with 0.1% BSA. Then, […] of cell suspension (2×10^5 cells) was seeded into the upper insert of SPLInsert with Polyethylene terephthalate (PET) membrane (pore size: 8.0 μm) (SPL Lifesciences, Korea) pre-coated with matrigel (BD Biosciences, San Jose, Calif.). The bottom well of 24-well plate of SPLInsert was filled with cell medium containing 10% FBS with different concentrations of isoplumbagin (5, 7.5 and 10 μM, Experimental group of oral squamous cell carcinoma cells (OC3-IV2); 2.5, 5 and 10 μM, Experimental groups of human primary glioblastoma cells (U87), human non-small cell lung carcinoma cells (H1299), human prostate cancer cells (PC3) and human cervical cancer cells (Hela)) or without isoplumbagin (DMSO added). […] Number of cells was counted using Image J. Relative invasion ability was calculated as cell number per area.
(§3) FIGS. 2A-2E show the inhibitory effect of different doses of isoplumbagin on invasion for oral squamous cell carcinoma cells (OC3-IV2), human primary glioblastoma cells (U87), human non-small cell lung carcinoma cells (H1299), prostate cancer cells (PC3) and cervical cancer cells (Hela) assessed with the Boyden chamber assays. *Compared with solvent control (DMSO). […]

[3] = tested on: human cervical cancer cells (Hela); assay: Boyden chamber invasion assay, Hela; assay type: cell-based; settings: 2.5, 5 and 10 μM, 24 h, dose dependency (FIG. 2E)
Method: as §2, §3

[4] = tested on: prostate cancer cells (PC3); assay: MTT survival assay, PC3; assay type: cell-based; settings: Homo sapiens, 48 h, read-out: IC50, survival rate
Method: According to the present invention, human prostate cancer cell line PC3 cells were obtained from ATCC (ATCC® ^CRL-1435™) and maintained in DMEM medium supplemented with 10% FBS, 1% L-Gln and 1% AA. Cells were maintained in an atmosphere containing 5% CO2 at 37° C., and the culture medium was replaced every 2 days.
as §1

[5] = tested on: human non-small cell lung carcinoma cells (H1299); assay: Boyden chamber invasion assay, H1299; assay type: cell-based; settings: 2.5, 5 and 10 μM, 24 h, dose dependency (FIG. 2C)
Method: as §2, §3

[6] = tested on: oral squamous cell carcinoma cells (OC3-IV2); assay: Oxygen consumption rate in intact cells (O2k Oxygraph); assay type: cell-based, human; settings: 2.5 μM, one independent experiment
Method: Oxygen consumption rate (OCR) in intact cells suspension was measured by O2k Oxygraph (Oroboros Instruments). DMSO or 2.5 μM isoplumbagin treated cells were detached from the plate by trypsinization and suspended at 5×10^5 cells/ml in DMEM/KSFM medium supplemented with 10% FBS into the O2k chambers. Oxygen consumption rate of DMSO or isoplumbagin treated cells samples were measured by adding 0.5 μM oligomycin, 0.5 μM FCCP, 1 μM rotenone and 1 μM antimycin A.
FIGS. 6A and 6B show the inhibitory effect of isoplumbagin on mitochondrial function and complex IV activity of oral squamous cell carcinoma cells (OC3-IV2). Oxygen consumption rate (OCR) of OC3-IV2 cells treated with DMSO (as control) or 2.5 μM isoplumbagin were measured by Oroboros instruments (FIG. 6A). […] OC3-IV2 cells treated with DMSO or 2.5 μM isoplumbagin were permeabilized with 5 μM digitonin (Dig) and added indicated substrates and inhibitors, and then mitochondria complex I/IV activity were determined by Oroboros instruments (FIG. 6B). Glu/Mal: glutamate (10 mM) and malate (2 mM), ADP (5 mM), Omy: oligomycin (0.5 μM), FCCP (0.5 nM), Rot: rotenone (1 μM), Ama: antimycin A (2 μM), TMPD: tetramethyl-p-phenylenediamine (0.1 mM), Asc: ascorbate (0.4 mM) and NaN3 5 mM. Data from three independent experiments are presented as mean ±SEM (*P<0.05, paired Student's t-test).

## CC1=CC(=O)c2cccc(O)c2C1=O [isoplumbagin, 5-hydroxy-3-methyl-1,4-naphthoquinone]
[1]
  IC50: 0.28 µg/mL (≈ 1.49 µM)
[2]
  cancer cells migrating through the membrane (invasion): decrease significantly
[3]
  cancer cells migrating through the membrane (invasion): decrease significantly
[4]
  IC50: 1.13 µg/mL (≈ 6 µM)
[5]
  cancer cells migrating through the membrane (invasion): decrease significantly
[6]
  mitochondrial function (oxygen consumption rate): can reduce mitochondrial function
